Consider 13 compounds from patent publication US20260193264A1, “BENZOYPARAZINE PYRAZINES AND THEIR USES” (FOGHORN THERAPEUTICS INC., priority 2022, published 2026).

Experiment [1] addresses T1, HiBit-BRG1 fusion protein in stable HeLa cell line expressing HiBit-BRG1 and LgBit (Homo sapiens, UniProt P51532).
T1 construct: expressed in transfected cells
In words: HiBiT-BRG1 cell-based degradation assay (Nano-Glo HiBiT, 24 h). The settings on record: HeLa HiBit-BRG1/LgBit cells; for DC50: read-out: BRMG1 HiBit Degradation IC50; for Dmax: top dose 30 μM, read-out: BRG1 HiBit Degradation Maximum (%). A digest of the protocol: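 Stable HeLa line co-expressing HiBiT-BRG1 and LgBiT, compound-treated 24 h; luminescence read after Nano-Glo HiBiT lytic reagent. % degradation normalised between DMSO (high control) and 2 μM reference BRM/BRG1 degrader (low control).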

For experiment [2], the target named is T2, HiBiT-BRM fusion protein in stable HeLa cell line (Homo sapiens, UniProt P51531).
T2 construct: expressed in transfected cells
T2 sequence (P51531 whole entry, the tested form may be a part): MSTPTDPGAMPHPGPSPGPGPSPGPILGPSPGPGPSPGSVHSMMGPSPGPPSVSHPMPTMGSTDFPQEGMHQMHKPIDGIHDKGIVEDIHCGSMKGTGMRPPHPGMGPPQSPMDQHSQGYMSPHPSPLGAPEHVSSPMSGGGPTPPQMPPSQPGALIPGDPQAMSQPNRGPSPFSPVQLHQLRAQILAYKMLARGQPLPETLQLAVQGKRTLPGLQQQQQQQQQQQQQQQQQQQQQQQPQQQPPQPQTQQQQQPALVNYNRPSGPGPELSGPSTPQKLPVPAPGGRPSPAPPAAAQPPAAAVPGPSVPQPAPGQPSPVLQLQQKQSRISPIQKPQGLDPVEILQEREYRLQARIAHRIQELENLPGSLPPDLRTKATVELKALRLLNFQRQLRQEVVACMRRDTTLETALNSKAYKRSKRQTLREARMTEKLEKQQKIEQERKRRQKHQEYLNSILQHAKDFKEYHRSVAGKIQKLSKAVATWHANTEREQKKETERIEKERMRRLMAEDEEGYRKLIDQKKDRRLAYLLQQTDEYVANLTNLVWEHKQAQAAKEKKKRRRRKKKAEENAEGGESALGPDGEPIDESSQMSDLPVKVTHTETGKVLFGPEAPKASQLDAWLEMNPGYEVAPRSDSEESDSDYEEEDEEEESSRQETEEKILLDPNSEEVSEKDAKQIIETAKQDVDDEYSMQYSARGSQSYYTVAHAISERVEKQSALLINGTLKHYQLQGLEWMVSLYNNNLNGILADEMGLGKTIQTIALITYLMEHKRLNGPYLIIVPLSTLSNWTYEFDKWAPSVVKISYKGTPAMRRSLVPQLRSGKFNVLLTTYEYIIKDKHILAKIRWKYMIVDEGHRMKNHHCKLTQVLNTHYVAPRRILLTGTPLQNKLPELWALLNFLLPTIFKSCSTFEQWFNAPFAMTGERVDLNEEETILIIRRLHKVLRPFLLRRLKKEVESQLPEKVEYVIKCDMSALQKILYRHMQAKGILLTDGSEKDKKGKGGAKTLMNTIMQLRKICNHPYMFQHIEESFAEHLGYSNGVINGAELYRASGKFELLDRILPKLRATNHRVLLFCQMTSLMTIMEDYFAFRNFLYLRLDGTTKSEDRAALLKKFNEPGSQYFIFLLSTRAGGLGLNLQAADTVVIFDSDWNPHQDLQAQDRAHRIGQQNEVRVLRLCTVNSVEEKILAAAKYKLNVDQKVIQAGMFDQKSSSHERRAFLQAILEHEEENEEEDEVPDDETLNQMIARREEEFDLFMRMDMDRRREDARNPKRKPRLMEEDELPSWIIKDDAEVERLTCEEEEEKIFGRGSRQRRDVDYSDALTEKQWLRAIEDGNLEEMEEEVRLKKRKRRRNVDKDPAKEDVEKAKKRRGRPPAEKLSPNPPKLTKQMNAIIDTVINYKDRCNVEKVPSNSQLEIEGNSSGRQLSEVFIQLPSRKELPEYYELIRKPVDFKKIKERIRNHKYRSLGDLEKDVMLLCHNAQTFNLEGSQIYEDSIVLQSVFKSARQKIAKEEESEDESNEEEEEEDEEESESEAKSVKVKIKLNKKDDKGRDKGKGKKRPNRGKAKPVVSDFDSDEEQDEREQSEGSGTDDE
Kind of experiment: HiBiT-BRM cell-based degradation assay (Nano-Glo HiBiT Lytic Detection, 24 h). On the set-up: DC50: scale not given here. The settings on record: HeLa HiBiT-BRM cells; for DC50: read-out: BRM HiBit Degradation IC50; for BRM HiBit Degradation Maximum (%): top dose 30 μM. A digest of the protocol: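 Stable HiBiT-BRM HeLa cells treated 24 h with 10-point 3-fold dilutions, top final dose 30 μM, in duplicate. Luminescence read after lytic LgBiT reagent. Percent degradation was normalised to DMSO (high control) and 2 μM reference BRM/BRG1 degrader (low control).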

T1 sequence (P51532 whole entry, the tested form may be a part): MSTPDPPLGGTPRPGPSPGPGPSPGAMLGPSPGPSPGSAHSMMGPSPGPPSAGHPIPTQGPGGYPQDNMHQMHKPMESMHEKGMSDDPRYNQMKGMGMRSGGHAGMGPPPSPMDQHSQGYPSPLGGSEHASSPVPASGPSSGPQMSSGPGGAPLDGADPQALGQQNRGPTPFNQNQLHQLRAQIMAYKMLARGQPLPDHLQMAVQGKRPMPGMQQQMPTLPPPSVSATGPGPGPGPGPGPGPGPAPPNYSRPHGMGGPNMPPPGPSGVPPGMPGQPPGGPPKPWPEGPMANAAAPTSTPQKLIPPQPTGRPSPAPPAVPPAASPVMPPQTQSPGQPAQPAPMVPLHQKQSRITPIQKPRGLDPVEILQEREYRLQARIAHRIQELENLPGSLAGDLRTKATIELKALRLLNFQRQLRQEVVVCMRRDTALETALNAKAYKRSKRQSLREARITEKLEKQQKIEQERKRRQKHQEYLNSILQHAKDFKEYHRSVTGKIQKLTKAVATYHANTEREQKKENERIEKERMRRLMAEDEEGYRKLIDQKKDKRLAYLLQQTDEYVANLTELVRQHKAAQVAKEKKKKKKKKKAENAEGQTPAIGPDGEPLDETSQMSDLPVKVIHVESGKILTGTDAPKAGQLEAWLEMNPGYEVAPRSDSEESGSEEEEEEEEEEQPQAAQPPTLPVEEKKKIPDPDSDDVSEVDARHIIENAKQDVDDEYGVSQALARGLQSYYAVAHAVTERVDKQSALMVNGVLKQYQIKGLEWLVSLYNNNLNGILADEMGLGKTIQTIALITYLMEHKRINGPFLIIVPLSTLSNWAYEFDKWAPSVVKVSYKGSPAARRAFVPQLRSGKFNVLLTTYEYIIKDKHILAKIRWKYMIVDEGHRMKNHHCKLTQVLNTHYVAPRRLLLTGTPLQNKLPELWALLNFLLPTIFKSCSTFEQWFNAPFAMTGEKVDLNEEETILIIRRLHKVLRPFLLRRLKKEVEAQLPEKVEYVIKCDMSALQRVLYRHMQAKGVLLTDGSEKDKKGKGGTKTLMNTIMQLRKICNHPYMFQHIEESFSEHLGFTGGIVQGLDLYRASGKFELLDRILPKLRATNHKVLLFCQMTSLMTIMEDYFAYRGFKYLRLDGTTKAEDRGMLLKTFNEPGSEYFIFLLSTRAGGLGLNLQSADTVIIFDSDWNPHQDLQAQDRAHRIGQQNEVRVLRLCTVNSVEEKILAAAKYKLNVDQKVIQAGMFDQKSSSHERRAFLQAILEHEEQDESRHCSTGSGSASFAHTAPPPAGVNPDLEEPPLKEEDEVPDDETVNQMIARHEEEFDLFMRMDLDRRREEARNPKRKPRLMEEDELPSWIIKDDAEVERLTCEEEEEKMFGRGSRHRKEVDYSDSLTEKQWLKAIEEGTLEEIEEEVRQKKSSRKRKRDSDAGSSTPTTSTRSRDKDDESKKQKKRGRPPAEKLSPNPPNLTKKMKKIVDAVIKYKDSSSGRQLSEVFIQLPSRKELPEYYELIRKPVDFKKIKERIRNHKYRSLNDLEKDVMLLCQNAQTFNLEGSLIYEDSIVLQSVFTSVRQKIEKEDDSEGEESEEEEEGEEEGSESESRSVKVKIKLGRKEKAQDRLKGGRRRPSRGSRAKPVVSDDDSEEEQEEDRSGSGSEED

For the compound `C#Cc1ccc(CNC(=O)[C@@H]2C[C@@H](O)CN2C(=O)[C@H](C(C)C)n2cc(N3CC4(CN(c5ccc6cc(-c7ccccc7O)nnc6c5)C4)C3)nn2)c(OCCCOC)c1` [Compound 242, (2S,4R)-N-(4-ethynyl-2-(3-methoxypropoxy)benzyl)-4-hydroxy-1-((S)-2-(4-(6-(3-(2-hydroxyphenyl)cinnolin-7-yl)-2,6-diazaspiro[3.3]heptan-2-yl)-1H-1,2,3-triazol-1-yl)-3-methylbutanoyl)pyrrolidine-2-carboxamide], in experiment [1], the DC50 was less than 10 nM and the Dmax was more than 50%. Also, in experiment [2], the DC50 is less than 10 nM and the “BRM HiBit Degradation Maximum (%)” value was “A (“A” indicates maximum degradation ≥75%)”.
`Cc1ncsc1-c1ccc([C@H](C)NC(=O)[C@@H]2C[C@@H](O)CN2C(=O)[C@@H](c2cc(-c3cnc(N4CC5(CN(c6ccc7nnc(-c8ccccc8O)cc7c6)C5)C4)nc3)no2)C(C)C)cc1` [Compound 243, (2S,4R)-4-hydroxy-1-((R)-2-(3-(2-(6-(3-(2-hydroxyphenyl)cinnolin-6-yl)-2,6-diazaspiro[3.3]heptan-2-yl)pyrimidin-5-yl)isoxazol-5-yl)-3-methylbutanoyl)-N-((S)-1-(4-(4-methylthiazol-5-yl)phenyl)ethyl)pyrrolidine-2-carboxamide]: in experiment [1], the DC50 is less than 10 nM and the Dmax is more than 75%. Also, in experiment [2], the DC50 is less than 10 nM and the “BRM HiBit Degradation Maximum (%)” value is “A (“A” indicates maximum degradation ≥75%)”.
Regarding `Cc1ncsc1-c1ccc([C@H](C)NC(=O)[C@@H]2C[C@@H](O)CN2C(=O)[C@@H](c2cc(N3CCC(N4CC5(CN(Cc6ccc7cc(-c8ccccc8O)nnc7c6)C5)C4)CC3)no2)C(C)C)cc1` [Compound 244, (2S,4R)-4-hydroxy-1-((R)-2-(3-(4-(6-((3-(2-hydroxyphenyl)cinnolin-7-yl)methyl)-2,6-diazaspiro[3.3]heptan-2-yl)piperidin-1-yl)isoxazol-5-yl)-3-methylbutanoyl)-N-((S)-1-(4-(4-methylthiazol-5-yl)phenyl)ethyl)pyrrolidine-2-carboxamide], in experiment [1], the Dmax is less than 50%. Moreover, in experiment [2], the DC50 was more than 100 nM and the “BRM HiBit Degradation Maximum (%)” value is listed as “B (“B” indicates maximum degradation ≥50%)”.
As to `Cc1ncsc1-c1ccc([C@H](C)NC(=O)[C@@H]2C[C@@H](O)CN2C(=O)[C@@H](c2cc(N3CC4(CN(Cc5ccc6nnc(-c7ccccc7O)cc6c5)C4)C3)no2)C(C)C)cc1` [Compound 245, (2S,4R)-4-hydroxy-1-((R)-2-(3-(6-((3-(2-hydroxyphenyl)cinnolin-6-yl)methyl)-2,6-diazaspiro[3.3]heptan-2-yl)isoxazol-5-yl)-3-methylbutanoyl)-N-((S)-1-(4-(4-methylthiazol-5-yl)phenyl)ethyl)pyrrolidine-2-carboxamide], in experiment [1], the Dmax was less than 50%. For the same compound, in experiment [2], the DC50 was more than 10 nM and the “BRM HiBit Degradation Maximum (%)” value was “B (“B” indicates maximum degradation ≥50%)”.
`Cc1ncsc1-c1ccc([C@H](C)NC(=O)[C@@H]2C[C@@H](O)CN2C(=O)[C@@H](c2cc(N3CC4(CN(c5ccc6cc(-c7cccc(F)c7O)nnc6c5)C4)C3)no2)C(C)C)cc1` [Compound 246, (2S,4R)-1-((R)-2-(3-(6-(3-(3-fluoro-2-hydroxyphenyl)cinnolin-7-yl)-2,6-diazaspiro[3.3]heptan-2-yl)isoxazol-5-yl)-3-methylbutanoyl)-4-hydroxy-N-((S)-1-(4-(4-methylthiazol-5-yl)phenyl)ethyl)pyrrolidine-2-carboxamide]: in experiment [1], the Dmax was less than 50%. Also, in experiment [2], the DC50 is less than 10 nM and the “BRM HiBit Degradation Maximum (%)” value is “A (“A” indicates maximum degradation ≥75%)”.
For `Cc1ncsc1-c1ccc([C@H](C)NC(=O)[C@@H]2C[C@@H](O)CN2C(=O)C(C(C)C)n2cc(N3CCN(CC4CCN(c5ccc6cc(-c7ccccc7O)nnc6c5)CC4)CC3)nn2)cc1` (stereo partly drawn) [Compound 247, (2S,4R)-4-hydroxy-1-(2-(4-(4-((1-(3-(2-hydroxyphenyl)cinnolin-7-yl)piperidin-4-yl)methyl)piperazin-1-yl)-1H-1,2,3-triazol-1-yl)-3-methylbutanoyl)-N-((S)-1-(4-(4-methylthiazol-5-yl)phenyl)ethyl)pyrrolidine-2-carboxamide], in experiment [1], the DC50 was less than 10 nM and the Dmax was more than 75%. Further, in experiment [2], the DC50 is less than 10 nM and the “BRM HiBit Degradation Maximum (%)” value is “A (“A” indicates maximum degradation ≥75%)”.
On to `Cc1ncsc1-c1ccc([C@H](C)NC(=O)[C@@H]2C[C@@H](O)CN2C(=O)C(C(C)C)n2cc(N3CCC4CCN(c5ccc6cc(-c7ccccc7O)nnc6c5)C4C3)nn2)cc1` (stereo partly drawn) [Compound 248, (2S,4R)-4-hydroxy-1-(2-(4-(1-(3-(2-hydroxyphenyl)cinnolin-7-yl)octahydro-6H-pyrrolo[2,3-c]pyridin-6-yl)-1H-1,2,3-triazol-1-yl)-3-methylbutanoyl)-N-((S)-1-(4-(4-methylthiazol-5-yl)phenyl)ethyl)pyrrolidine-2-carboxamide], for which, in experiment [1], the DC50 is more than 10 nM and the Dmax is more than 75%. In addition, in experiment [2], the DC50 is less than 10 nM and the “BRM HiBit Degradation Maximum (%)” value is on record as “A (“A” indicates maximum degradation ≥75%)”.
As to `Cc1ncsc1-c1ccc([C@H](C)NC(=O)[C@@H]2C[C@@H](O)CN2C(=O)C(C(C)C)n2cc(N3CC4CCN(c5ccc6cc(-c7ccccc7O)nnc6c5)CC43)nn2)cc1` (stereo partly drawn) [Compound 249, (2S,4R)-4-hydroxy-1-(2-(4-(3-(3-(2-hydroxyphenyl)cinnolin-7-yl)-3,8-diazabicyclo[4.2.0]octan-8-yl)-1H-1,2,3-triazol-1-yl)-3-methylbutanoyl)-N-((S)-1-(4-(4-methylthiazol-5-yl)phenyl)ethyl)pyrrolidine-2-carboxamide], in experiment [1], the DC50 is more than 100 nM and the Dmax was more than 75%. In experiment [2], the DC50 is more than 10 nM and the “BRM HiBit Degradation Maximum (%)” value is “A (“A” indicates maximum degradation ≥75%)”.
With `Cc1ncsc1-c1ccc([C@H](C)NC(=O)[C@@H]2C[C@@H](O)CN2C(=O)C(C(C)C)n2cc(N3CC4CN(c5ccc6cc(-c7ccccc7O)nnc6c5)CCC43)nn2)cc1` (stereo partly drawn) [Compound 250, (2S,4R)-4-hydroxy-1-(2-(4-(3-(3-(2-hydroxyphenyl)cinnolin-7-yl)-3,7-diazabicyclo[4.2.0]octan-7-yl)-1H-1,2,3-triazol-1-yl)-3-methylbutanoyl)-N-((S)-1-(4-(4-methylthiazol-5-yl)phenyl)ethyl)pyrrolidine-2-carboxamide], in experiment [1], the DC50 is less than 10 nM and the Dmax is more than 75%. Moreover, in experiment [2], the DC50 was less than 10 nM and the “BRM HiBit Degradation Maximum (%)” value is recorded as “A (“A” indicates maximum degradation ≥75%)”.
Consider `Cc1ncsc1-c1ccc([C@H](C)NC(=O)[C@@H]2C[C@@H](O)CN2C(=O)C(C(C)C)n2cc(N3CCCC4(CCN(c5ccc6cc(-c7ccccc7O)nnc6c5)CC4)C3)nn2)cc1` (stereo partly drawn) [Compound 251, (2S,4R)-4-hydroxy-1-(2-(4-(9-(3-(2-hydroxyphenyl)cinnolin-7-yl)-2,9-diazaspiro[5.5]undecan-2-yl)-1H-1,2,3-triazol-1-yl)-3-methylbutanoyl)-N-((S)-1-(4-(4-methylthiazol-5-yl)phenyl)ethyl)pyrrolidine-2-carboxamide], for which, in experiment [1], the DC50 is less than 10 nM and the Dmax is more than 75%. In experiment [2], the DC50 was less than 10 nM and the “BRM HiBit Degradation Maximum (%)” value is “A (“A” indicates maximum degradation ≥75%)”.
Consider `Cc1ncsc1-c1ccc([C@H](C)NC(=O)[C@@H]2C[C@@H](O)CN2C(=O)[C@@H](c2cc(N3CC4(CC(c5cc6nnc(-c7ccccc7O)cc6cc5C5CC5)C4)C3)no2)C(C)C)cc1` [Compound 252, (2S,4R)-1-((R)-2-(3-(6-(6-cyclopropyl-3-(2-hydroxyphenyl)cinnolin-7-yl)-2-azaspiro[3.3]heptan-2-yl)isoxazol-5-yl)-3-methylbutanoyl)-4-hydroxy-N-((S)-1-(4-(4-methylthiazol-5-yl)phenyl)ethyl)pyrrolidine-2-carboxamide], for which, in experiment [1], the DC50 is less than 10 nM and the Dmax was more than 75%. In addition, in experiment [2], the DC50 was less than 10 nM and the “BRM HiBit Degradation Maximum (%)” value is given as “A (“A” indicates maximum degradation ≥75%)”.
With `Cc1ncsc1-c1ccc([C@H](C)NC(=O)[C@@H]2C[C@@H](O)CN2C(=O)[C@@H](c2cc(N3CC4(C3)CN(c3cc5nnc(-c6ccccc6O)cc5cc3OC3CC3)C4)no2)C(C)C)cc1` [Compound 253, (2S,4R)-1-((R)-2-(3-(6-(6-cyclopropoxy-3-(2-hydroxyphenyl)cinnolin-7-yl)-2,6-diazaspiro[3.3]heptan-2-yl)isoxazol-5-yl)-3-methylbutanoyl)-4-hydroxy-N-((S)-1-(4-(4-methylthiazol-5-yl)phenyl)ethyl)pyrrolidine-2-carboxamide], in experiment [1], the DC50 is less than 10 nM and the Dmax is more than 75%. In addition, in experiment [2], the DC50 was less than 10 nM and the “BRM HiBit Degradation Maximum (%)” value is “A (“A” indicates maximum degradation ≥75%)”.
Turning to `C#Cc1ccc([C@H](C)NC(=O)[C@@H]2C[C@@H](O)CN2C(=O)[C@H](C(C)C)n2cc(N3CC4(CN(c5ccc6cc(-c7ccccc7O)nnc6c5)C4)C3)nn2)cc1` [Compound 254, (2S,4R)-N-((S)-1-(4-ethynylphenyl)ethyl)-4-hydroxy-1-((S)-2-(4-(6-(3-(2-hydroxyphenyl)cinnolin-7-yl)-2,6-diazaspiro[3.3]heptan-2-yl)-1H-1,2,3-triazol-1-yl)-3-methylbutanoyl)pyrrolidine-2-carboxamide], in experiment [1], the Dmax was less than 50%. Also, in experiment [2], the DC50 is less than 10 nM and the “BRM HiBit Degradation Maximum (%)” value is recorded as “A (“A” indicates maximum degradation ≥75%)”.
